Experimental data published in article PMC9395490, “An open-label, crossover study to compare different formulations and evaluate effect of food on pharmacokinetics of pimitespib in patients with advanced solid tumors” (Investigational New Drugs, 2022).
Where two headings read alike, the source gives them in different places.

Experiments:
[1] = test system: patients with advanced solid tumors; set-up: method as in PMID 30679388; conditions: phase I; cited from earlier work
[2] = PK evaluation period, Cohort 1: single dose of Formulation A vs Formulation B under fasting conditions (crossover); format: in vivo, patients with advanced solid tumors
Experimental: This clinical, pharmacological, multicenter study was conducted in Japan and consisted of two cohorts (Cohorts 1 and 2) and two periods. The patients were first assigned to the pharmacokinetic evaluation period to investigate PK parameters of each formulation (Cohort 1) or the effect of food (Cohort 2), and then to the consecutive administration period (Supplementary Fig. 1).
In both cohorts, a randomized cross-over design was used.
For fasting conditions, patients were required to fast at least 10 h before dosing and at least 4 h after dosing and abstain from drinking water 1 h before and after administration, excluding the water consumed at the time of dosing. For fed conditions, patients were required to fast for at least 10 h before dosing and at least 4 h after dosing (except for the scheduled study meal) and abstain from drinking for 1 h before and after administration, except for drinking water. The study drug was administered within 30 min of completing the meal. The study meal was a high-fat (approximately 50% of the total caloric content of the meal) and high-calorie (572–715 kcal) meal considering the weight ratio of Japanese to American individuals. The meal’s nutritional value was adjusted based on the body weight of Japanese patients according to the US FDA standard guidance. It was recommended that study drug dosing be done with 100–200 (usually 150) mL of water.
Patients underwent hematologic, coagulation, biochemical laboratory examinations, urinalysis, electrocardiogram, ophthalmologic examination, and vital sign and body weight assessments. Blood collection occurred before pimitespib administration and at 0.5, 1, 2, 4, 6, 8, 10, 24, and 48 h after administration at the first and second doses.
For Cohort 1 analyses, the values of the natural log-transformed PK parameters (Cmax, AUClast, AUCinf, terminal elimination rate constant [λz], and mean residence time) were analyzed using analysis of variance (ANOVA), using Phoenix® WinNonlin® Ver. 8.1. […] The time to maximum plasma concentration (tmax) was not transformed and was analyzed using Wilcoxon’s signed-rank test, conducted using EXSUS version 10.0.3. The significance level was set at 5%.

[3] = test system: patients with advanced GIST; set-up: method as in doi:10.1200/JCO.2021.39.15_suppl.11524; conditions: phase III, cited from earlier work
[4] = PK evaluation period, Cohort 2: food effect, single dose of Formulation A under fed vs fasting conditions (crossover); format: in vivo, patients with advanced solid tumors
Experimental: For fasting conditions, patients were required to fast at least 10 h before dosing and at least 4 h after dosing and abstain from drinking water 1 h before and after administration, excluding the water consumed at the time of dosing. For fed conditions, patients were required to fast for at least 10 h before dosing and at least 4 h after dosing (except for the scheduled study meal) and abstain from drinking for 1 h before and after administration, except for drinking water. The study drug was administered within 30 min of completing the meal. The study meal was a high-fat (approximately 50% of the total caloric content of the meal) and high-calorie (572–715 kcal) meal considering the weight ratio of Japanese to American individuals. […]
For the analyses related to Cohort 2, the ANOVA model included treatment (fasting and fed conditions), treatment period, and treatment sequence as fixed effects, and patients nested within treatment sequence as a random effect. The GMR and 90% CI of the fed condition to the fasting condition were calculated.

[5] = test system: patients with advanced GIST; set-up: method as in PMID 31536852; conditions: phase II, advanced GIST failed or intolerant to imatinib, sunitinib, regorafenib; cited from earlier work

inter-subject CV% for AUCinf [2]: 54.4%
inter-subject CV% for AUClast [2]: 52.6%
inter-subject CV% for Cmax [2]: 63.8%
intra-subject CV% for AUCinf [2]: 24.9%
intra-subject CV% for AUClast [2]: 24.4%
intra-subject CV% for Cmax [2]: 28.5%
AUC under fed conditions, fold higher than under fasting conditions [4]: ~1.6 fold
Cmax under fed conditions, fold higher than under fasting conditions [4]: approximately 1.9 fold
Compound: CCc1cc(C(N)=O)ccc1-n1nc(C(C)C)c2c(-n3cnc(-c4cnn(C)c4)c3)ccnc21 [pimitespib, Pimitespib]
patients with GIST achieving a partial response [1]: one
patients with non-small cell lung cancer achieving a partial response [1]: two
median PFS ([3]; advanced GIST refractory or intolerant to imatinib, sunitinib, regorafenib): 2.8 months
hazard ratio (HR) for PFS ([3]; pimitespib vs placebo): 0.51
median PFS [5]: 4.4 months
